Laboratory results reported in US20180371076A1, “MATERNAL TH17 CELLS AND PSYCHIATRIC DISORDERS” (New York University, priority 2017, published 2018).

Legend:
[1] = system: offspring of pregnant mice (MIA mouse model); experiment: Open field test in adult offspring; format: in vivo
Description: Maternal Immune Activation. Mice were mated overnight and females were checked daily for the presence of seminal plugs, noted as embryonic day 0.5 (E0.5). On E12.5, pregnant female mice were weighed and injected with a single dose (20 mg/kg; i.p.) of poly(I:C) (Sigma Aldrich) or PBS vehicle. Each dam was returned to its cage and left undisturbed until the birth of its litter. All pups remained with the mother until weaning on postnatal day 21 (P21), at which time mice were group housed at maximum 5 per cage with same-sex littermates. For the IL-17 cytokine blockade experiment, monoclonal IL-17a blocking antibody (clone 50104; R&D) or isotype control antibody (IgG2a, clone 54447; R&D) was administered 6 h before maternal immune activation (FIG. 2) via i.p. route (500 μg/animal) or 2 days after maternal immune activation (FIG. 5) via i.p. route (500 μg/animal).
Open field test. Adult mice were placed in a 50×50 cm white Plexiglas box. Activity was recorded by a video camera and data was analyzed with Ethovision software (Noldus). The software allows display of the paths taken by the mice, and it measures the total distance moved into the center of the arena in a 10 min session.

[2] = system: cortex of the fetal brain; experiment: Cortical development: SATB2/TBR1/CTIP2 immunohistochemistry of fetal and adult offspring brain; format: in vivo, mouse; settings: offspring of MIA vs PBS-treated mothers
IL-6 = IL-6 ELISA of maternal serum; format: in vivo, mouse; settings: poly(I:C) 20 mg/kg i.p. at E12.5, 3 h, vs PBS
Description: Cell preparation, Flow cytometry, ELISA. Embryos at each implantation site were dissected in ice-cold HBSS containing Ca^2+ and Mg^2+. Myometrium was first peeled off of the decidua and embryos were discarded. Dissected decidual and placental tissues were then minced and enzymatically dissociated in HBSS containing 0.28 Wunsch units (WU)/mL Liberase (Roche) and 30 μg/ml DNase I (Roche) for 30 min at 37° C. with intermittent mixing. Digested tissues were washed in PBS containing 5 mM EDTA and 5% fetal bovine serum and then incubated again in the same buffer for 15 min at 37° C. prior to filtration through a cell strainer. After separation on a discontinuous 40% & 80% Percoll gradient, the mononuclear cell fraction was treated with ACK lysis buffer (Lonza). Mononuclear cells (1×10^6 cells/mL) were stimulated with phorbol 12-myristate 13-acetate (PMA, 50 ng/mL; Sigma), ionomycin (500 ng/mL; Sigma) in T cell media: RPMI 1640 (Invitrogen) supplemented with 10% (v/v) heat-inactivated FBS (Hyclone), 50 U penicillin-streptomycin (Invitrogen), 2 mM glutamine, and 50 μM β-mercaptoethanol. Cell culture supernatant was used for ELISA analyses. For flow cytometry, cells were incubated for 5 h with PMA, ionomycin and GolgiStop (BD). […] For ELISA with sera and placenta/decidua extract, IL-6 (Ebioscience), IL-17a (Biolgened), and IL-10 (BD) were measured according to the manufacturer's protocol. […]

## poly(I:C)
[1]; offspring of MIA mothers
  total distance covered in open field: did not affect the total distance covered
[1]; offspring of poly(I:C)-injected WT or RORγ/γt HET animals vs PBS-injected WT
  time in the center of an open field: significantly reduced time in the center
[2]
  cortical organization by Golgi staining: disorganized cortical regions
IL-6
  serum IL-6: strong induction
